Experimental data as given in ChEMBL document CHEMBL1201862, “PubChem BioAssay data set” (2004).
Values belong to the compound of their own block, whether it stands above or below them. Activity calls are given as the source filed them.

Tests used:
Cytochrome P450 1A2 = biological target: T1, Cytochrome P450 1A2 (Homo sapiens, UniProt P05177);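 note: PubChem cytochrome P450 panel assay, CYP1A2 panel member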
T1 sequence (P05177 whole entry): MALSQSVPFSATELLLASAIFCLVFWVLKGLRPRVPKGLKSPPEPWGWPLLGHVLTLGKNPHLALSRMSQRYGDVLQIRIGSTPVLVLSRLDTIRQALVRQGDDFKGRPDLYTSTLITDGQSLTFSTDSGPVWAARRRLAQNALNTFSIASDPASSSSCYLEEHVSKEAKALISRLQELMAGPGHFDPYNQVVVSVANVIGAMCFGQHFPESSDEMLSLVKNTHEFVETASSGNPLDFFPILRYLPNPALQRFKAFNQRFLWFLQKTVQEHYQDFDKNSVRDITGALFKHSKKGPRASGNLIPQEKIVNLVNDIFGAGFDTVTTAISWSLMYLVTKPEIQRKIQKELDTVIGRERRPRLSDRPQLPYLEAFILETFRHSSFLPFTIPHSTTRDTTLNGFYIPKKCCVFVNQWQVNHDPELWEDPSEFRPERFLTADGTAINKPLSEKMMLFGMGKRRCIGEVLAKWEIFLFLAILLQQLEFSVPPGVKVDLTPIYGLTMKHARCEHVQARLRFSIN

Cytochrome P450 3A4 = Cytochrome P450 3A4 (Homo sapiens, UniProt P08684);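 note: CYP3A4 tested as one member of a cytochrome P450 panel screen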
Sequence of Cytochrome P450 3A4 (P08684 whole entry): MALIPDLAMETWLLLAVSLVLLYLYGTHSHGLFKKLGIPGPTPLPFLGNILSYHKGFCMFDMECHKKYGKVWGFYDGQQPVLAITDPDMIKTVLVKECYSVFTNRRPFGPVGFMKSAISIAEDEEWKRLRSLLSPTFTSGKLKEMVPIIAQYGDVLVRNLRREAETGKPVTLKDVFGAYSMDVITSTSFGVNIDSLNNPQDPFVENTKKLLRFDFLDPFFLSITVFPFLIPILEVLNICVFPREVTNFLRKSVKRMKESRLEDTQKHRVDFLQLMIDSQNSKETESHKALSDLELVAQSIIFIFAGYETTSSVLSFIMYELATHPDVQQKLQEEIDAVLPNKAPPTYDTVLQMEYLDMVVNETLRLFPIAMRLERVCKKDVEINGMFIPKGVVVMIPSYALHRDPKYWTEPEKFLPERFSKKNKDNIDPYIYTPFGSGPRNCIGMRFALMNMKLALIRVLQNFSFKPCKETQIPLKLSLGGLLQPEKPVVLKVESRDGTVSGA

HEK293 [1] = test: inhibition of NOD1-driven NF-kB reporter – cell-based, luminescence, uHTS, primary screen (AID 1578); format: functional; conditions: Homo sapiens
HEK293 [2] = test: cells; format: functional, cell-based; conditions: Homo sapiens
HEK293 [3] = test: cells; format: functional, cell-based; conditions: Homo sapiens; remark: listed apart in the source
[4] = biological target: Nucleotide-binding oligomerization domain-containing protein 2 (Homo sapiens, UniProt Q9HC29); test: inhibition of NOD2-driven NF-kB reporter – cell-based, luminescence, uHTS, HEK293 (AID 1566); format: functional
Sequence of Nucleotide-binding oligomerization domain-containing protein 2 (Q9HC29 whole entry, the tested form may be a part): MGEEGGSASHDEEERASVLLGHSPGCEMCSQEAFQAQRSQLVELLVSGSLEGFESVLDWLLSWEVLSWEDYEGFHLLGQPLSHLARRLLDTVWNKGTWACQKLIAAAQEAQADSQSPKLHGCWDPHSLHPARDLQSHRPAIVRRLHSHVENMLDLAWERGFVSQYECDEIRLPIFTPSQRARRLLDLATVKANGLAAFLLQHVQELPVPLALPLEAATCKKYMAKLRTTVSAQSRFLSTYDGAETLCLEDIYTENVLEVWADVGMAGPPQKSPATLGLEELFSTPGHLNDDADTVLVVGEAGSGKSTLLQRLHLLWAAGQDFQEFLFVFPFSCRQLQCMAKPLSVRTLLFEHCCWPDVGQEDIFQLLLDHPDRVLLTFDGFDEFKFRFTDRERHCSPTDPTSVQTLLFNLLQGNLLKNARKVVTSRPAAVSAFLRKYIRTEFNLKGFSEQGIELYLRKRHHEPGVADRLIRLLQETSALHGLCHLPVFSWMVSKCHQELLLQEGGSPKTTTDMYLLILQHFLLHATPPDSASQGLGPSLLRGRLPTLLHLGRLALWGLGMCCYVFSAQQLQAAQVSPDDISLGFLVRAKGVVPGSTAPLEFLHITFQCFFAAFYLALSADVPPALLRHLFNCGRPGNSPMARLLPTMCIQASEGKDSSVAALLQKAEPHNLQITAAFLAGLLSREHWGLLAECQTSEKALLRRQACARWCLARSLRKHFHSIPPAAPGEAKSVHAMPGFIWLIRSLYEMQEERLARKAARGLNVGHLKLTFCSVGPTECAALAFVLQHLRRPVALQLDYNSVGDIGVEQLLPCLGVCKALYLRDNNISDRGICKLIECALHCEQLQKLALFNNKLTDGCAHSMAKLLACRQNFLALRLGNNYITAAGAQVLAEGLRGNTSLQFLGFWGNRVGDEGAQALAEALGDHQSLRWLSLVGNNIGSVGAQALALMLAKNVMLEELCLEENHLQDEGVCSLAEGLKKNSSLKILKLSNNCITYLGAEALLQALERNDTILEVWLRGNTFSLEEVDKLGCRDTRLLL

HEK293 [5] = test: NOD2 signaling inhibitors in MDP-stimulated cells, cell-based, uHTS, luminescence (AID 2001); format: functional; conditions: Homo sapiens
HEK293 [6] = test: cells; format: functional, cell-based; conditions: Homo sapiens; remark: listed apart in the source
Cytochrome P450 2C19 = Cytochrome P450 2C19 (Homo sapiens, UniProt P33261); test: Cytochrome panel assay with activity outcomes. Panel member name: p450-cyp2c19 Compounds with AC50 equal or less than 10 uM are considered active; format: functional
Sequence of Cytochrome P450 2C19 (P33261 whole entry): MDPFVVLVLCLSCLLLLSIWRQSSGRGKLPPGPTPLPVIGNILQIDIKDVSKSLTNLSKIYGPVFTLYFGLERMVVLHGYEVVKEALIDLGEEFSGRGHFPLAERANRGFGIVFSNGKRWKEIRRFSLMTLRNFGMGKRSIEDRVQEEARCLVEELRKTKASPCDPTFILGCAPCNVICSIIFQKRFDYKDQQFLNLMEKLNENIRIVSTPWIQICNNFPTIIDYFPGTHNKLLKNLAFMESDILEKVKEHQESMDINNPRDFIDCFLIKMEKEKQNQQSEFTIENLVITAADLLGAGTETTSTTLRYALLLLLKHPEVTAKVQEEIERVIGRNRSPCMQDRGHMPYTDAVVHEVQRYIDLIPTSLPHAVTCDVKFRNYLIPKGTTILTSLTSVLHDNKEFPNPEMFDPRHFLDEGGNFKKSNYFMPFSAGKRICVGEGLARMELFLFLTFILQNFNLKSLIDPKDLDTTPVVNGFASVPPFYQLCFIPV

HEK293 [7] = test: EBV LMP1 TES2 canonical NF-kB signalling blockers – cell-based, HEK293, luciferase, cherry-pick, dose response (AID 588343); format: functional; conditions: Homo sapiens
[8] = biological target: Dual specificity tyrosine-phosphorylation-regulated kinase 1A (Rattus norvegicus, UniProt Q63470); format: biochemical, Homo sapiens
[9] = viability of PTEN-deleted HCT116 cells – cell-based, HCT116 PTEN knockout, dose response (AID 1047); format: functional;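 note: HCT116 colon tumor cells with PTEN knocked out; cells exposed to compound for 60 hours before readout; potency for loss of cell viability measured by luminescence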
[10] = viability of HCT116 lacking mutant beta-catenin – cell-based, human colon tumor, dose response (AID 1045); format: functional;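 note: HCT116 colon tumor cells with beta catenin knocked out; cells exposed to compound for 60 hours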
[11] = biological target: DNA damage-inducible transcript 3 protein (Mus musculus, UniProt P35639); format: functional, Cricetulus griseus
Sequence of DNA damage-inducible transcript 3 protein (P35639 whole entry): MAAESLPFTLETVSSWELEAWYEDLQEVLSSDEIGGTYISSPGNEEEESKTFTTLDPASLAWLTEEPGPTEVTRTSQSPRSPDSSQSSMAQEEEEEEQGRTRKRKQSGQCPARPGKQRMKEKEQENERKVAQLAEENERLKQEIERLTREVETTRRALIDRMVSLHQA

Structure (SMILES): CCN(C(=O)c1cnc(N2CCN(c3ncccn3)CC2)c2ccccc12)c1cccc(Cl)c1
- EC50 (HEK293 [1]): 5.39 µM (active)
- IC50 (HEK293 [2]): 3.5 µM (active)
- IC50 (HEK293 [3]): 8.34 µM (active)
- EC50 [4]: 7.19 µM (active)
- IC50 (HEK293 [5]): 4.17 µM (active)
- IC50 (HEK293 [6]): > 20 µM (inactive)
- AC50 (Cytochrome P450 1A2): 15.8 µM (inconclusive)

Structure (SMILES): CC1(C)Cc2nc3sc4c(SCC(=O)O)ncnc4c3cc2CO1
- AC50 (HEK293 [7]): 4.58 µM (active)
- AC50 [8]: 2.6 µM (active)

Structure (SMILES): CSc1nc(O)c2cnn(-c3ccc(C)c(C)c3)c2n1
- EC50 [9]: 26.2 µM (active)
- EC50 [10]: 27.6 µM (active)
- Absolute IC50 (CHOP) [11]: 10 µM

More lines, now with the values ahead:

- AC50 (Cytochrome P450 1A2): 0.251 µM (inconclusive)
- AC50 (Cytochrome P450 3A4): inconclusive
Structure (SMILES): Cn1c(=O)c(-c2ccc(Cl)cc2)nc2cnc(Oc3cccc(Cl)c3)nc21

- AC50 (Cytochrome P450 1A2): 39.8 µM (inconclusive)
- AC50 (Cytochrome P450 3A4): inconclusive
Structure (SMILES): CCOC(=O)N1CCN(C(=O)c2ccc3c(=O)n(-c4ccc(OC)cc4)c(=S)[nH]c3c2)CC1

- AC50 (Cytochrome P450 2C19): inconclusive
- AC50 (Cytochrome P450 3A4): inconclusive
Structure (SMILES): O=C(Nc1nnc(COc2ccc(Cl)cc2)s1)c1ccc([N+](=O)[O-])cc1

- AC50 (Cytochrome P450 3A4): inconclusive
Structure (SMILES): C#C[C@@]1(OC(C)=O)CC[C@@H]2[C@@H]3CCC4=C[C@@H](OC(C)=O)CC[C@H]4[C@H]3CC[C@]21C

- AC50 (Cytochrome P450 3A4): inconclusive
Structure (SMILES): O=C(c1cnccn1)N1CCC2(CC1)CN(c1ccccn1)C2
